Square brackets hold non-standard residues; d marks the D form. 2Nal = N[C@@H](Cc1ccc2ccccc2c1)C(=O)O; Sar = CNCC(=O)O

For one experiment, the system named is Megakaryocytes. Put plainly: Histology (H&E) megakaryocyte count in sternal bone marrow of healthy mice after single s.c. dose. The format is in vivo. Here is the method: (§1) In this study, normal male C57BL/6 mice were subcutaneously injected with RWJ-800088 (TPOm) at 300 μg/kg (Day 0). […]
Further, hematopoietic stem and progenitor cell (HSPC) populations in the femoral marrow were examined by flow cytometry (FIG. 2).

The subject of experiment [1] is Myeloid progenitor cells (MPC). Put plainly: Flow cytometry of femoral bone marrow, total count/femur: myeloid progenitor cells (Example 1). Format: in vivo, mice. The method, then: as §1
(§2) […] After, the cell pellet was resuspended in 1X ACK lysing buffer (Lonza, 10-548E) to lyse red blood cells. The suspension was filtered through 70 μm nylon mesh and collected for further analysis.
(§3) The bone marrow was further processed to isolate single cell populations. Then, the cells from the bone marrow and blood were subjected to flow cytometry to identify various population, including endothelial cells (EC), EPC, arterial EC, sinusoidal EC, lineage-, c-kit+, Sca-1+(LSK), megakaryocyte progenitors, short-term hematopoietic stem cell (ST-HSC), long-term HSC (LT-HSC), mesenchymal stern cell (MSC), LepR+c-mpl+MSC. The portion of blood sample was also subjected to clonogenic assay to validate the EPC population.
(§4) The cells isolated from the bone marrow and peripheral blood were incubated with
(§5) Live/Dead Zombie dye (Biolegend) in phosphate-buffered saline (PBS) at room temperature for 15 minutes. After, primary antibodies were diluted in 2% fetal bovine serum (FBS)-PBS solution and incubated with cells on ice for 30 minutes. Cells were washed with 2% FBS-PBS solution and incubated with secondary antibodies for 30 minutes. Cells were washed again and acquired on Cytek Aurora spectral cytometer. Analysis was done through FlowJo (Tree Star) software.
(In flow cytometry, cells or beads pass a laser one at a time.)

The subject of another experiment is LSK. Put plainly: Flow cytometry of femoral bone marrow, total count/femur: LSK cells (Example 1). Format: in vivo, mice. To be noted: after treatment for 13 days. Here is the method:
as §1
(§6) Tibias were flushed and digested with 1 mg/mL collagenase IV (Gibco, 17104019) and 2 mg/mL dispase (Gibco, 17105041) in Hank's balanced salt solution (HB SS) (Gibco, 24020117) for a total of 30 minutes at 37° C. with an inversion at 15 minutes. After, the cell pellet was resuspended in 1X ACK lysing buffer (Lonza, 10-548E) to lyse red blood cells. The suspension was filtered through 70 μm nylon mesh and collected for further analysis.
as §3, §4
(§7) Live/Dead Zombie dye (Biolegend) in phosphate-buffered saline (PBS) at room temperature for 15 minutes. After, primary antibodies were diluted in 2% fetal bovine serum (FBS)-PBS solution and incubated with cells on ice for 30 minutes. […]

In a further experiment the test system is Short-term HSCs. Put plainly: Flow cytometry of femoral bone marrow, total count/femur: short-term HSCs (Example 1). Particulars: after treatment for 13 days. The format is in vivo, mice. The method, then: as §1, §2, §3, §4, §5
Another experiment concerns Long-term HSCs. Put plainly: Flow cytometry of femoral bone marrow, total count/femur: long-term HSCs (Example 1). The format is in vivo, mice. To be noted: only by day 13 after treatment. The method, then:
as §1, §2, §3, §4, §5

Experiment [2] has as its system Endothelial progenitor cells (EPC). Put plainly: Flow cytometry of femoral bone marrow, total count/femur: endothelial progenitor cells (Example 1). To be noted: days 3 to 13 after 300 μg/kg s.c. Format: in vivo, mice. Here is the method: as §1, §6, §3, §4, §7
The next experiment has as its system Endothelial cells (EC). Put plainly: Flow cytometry of femoral bone marrow, total count/femur: CD31+ endothelial cells (Example 1). Particulars: days 3 to 13 after 300 μg/kg s.c. The format is in vivo, mice. The method, then:
In this study, normal male C57BL/6 mice were subcutaneously injected with RWJ-800088 (TPOm) at 300 μg/kg (Day 0). At days 3, 7, 10 and 14, the mice were sacrificed to collect the bone marrow and blood samples.
as §2, §3, §4
Live/Dead Zombie dye (Biolegend) in phosphate-buffered saline (PBS) at room temperature for 15 minutes. After, primary antibodies were diluted in 2% fetal bovine serum (FBS)-PBS solution and incubated with cells on ice for 30 minutes. Cells were washed with 2% FBS-PBS solution and incubated with secondary antibodies for 30 minutes. […]

In experiment [3] the test system is myeloid progenitor cells (MPCs). Put plainly: Flow cytometry of bone marrow ten days after treatment: MPCs (Example 2). Format: in vivo, mice. To be noted: ten days after 300 μg/kg s.c.; percentage of CD45- cells. Here is the method:
(§8) In this study, male C57BL/6 mice (8-10 weeks old) from Jackson Laboratory (Bar Harbor, Me.) were subcutaneously injected with RWJ-800088 (TPOm) at 300 μg/kg or PBS (vehicle). At day 10 after RWJ-800088 injection, the mice were sacrificed to harvest bone marrow and peripheral blood. Another set of groups was intraperitoneally injected with 5 mg/kg of plerixafor (also named AMD3100) from Sigma-Aldrich 1 hour before the sacrifice. The bone marrow was further processed to isolate single cell populations. Then, the cells from bone marrow and blood were subjected to flow cytometry to identify various populations. Bone Marrow Cell Collection
(§9) Tibias were flushed and digested with 1 mg/mL collagenase IV (Gibco, 17104019) and 2 mg/mL dispase (Gibco, 17105041) in Hank's balanced salt solution (HBSS; Gibco, 24020117) for a total of 30 minutes at 37° C. with an inversion at 15 minutes. After, cell pellet was resuspended in lx ACK lysing buffer (Lonza, 10-548E) to lyse red blood cells. The suspension was filtered through 100 μm nylon mesh and collected for further analysis.
(§10) The cells isolated from the bone marrow and peripheral blood were incubated with Live/Dead Zombie dye (Biolegend) in PBS at room temperature for 15 minutes. After, primary antibodies were diluted in 2% FBS-PBS solution and incubated with cells on ice for 30 minutes. […]

Experiment [4] deals with hemopoietic stem cells (HSCs). Put plainly: Flow cytometry of bone marrow ten days after treatment: HSCs (Example 2). The format is in vivo, mice. To be noted: ten days after 300 μg/kg s.c.; percentage of CD45- cells. The method, then:
as §8, §9, §10

In experiment [5] the test system is Endothelial progenitor cells (EPCs). Put plainly: Flow cytometry of bone marrow ten days after treatment: EPCs (Example 2). The format is in vivo, mice. To be noted: 10 days after 300 μg/kg s.c.; percentage of CD45- cells. Here is the method:
as §8, §9, §10

As for “methoxypolyethyleneglyco120000-propionyl-L-Isoleucyl-L-Glutamyl-Glycyl-L-Prolyl-L-Threonyl-L-Leucyl-L-Arginyl-L-Glutaminyl-L-2-Naphthylalanyl-L-Leucyl-L-Alanyl-L-Alanyl-L-Arginyl-Sarcosyl-Ne-(methoxypolyethyleneglyco120000-propionyl-L-Isoleucyl-L-Glutamyl-Glycyl-L-Prolyl-L-Threonyl-L-Leucyl-L-Arginyl-L-Glutaminyl-L-2-Naphthylalanyl-L-Leucyl-L-Alanyl-L-Alanyl-L-Arginyl-Sarcosyl-)-Lysinamide ({methoxypolyethyleneglycol 20000‑propionyl}-IEGPTLRQ[2Nal]LAAR[Sar]K-NH2; also: dimer: second identical mPEG20000-propionyl-peptide-Sar arm on C-terminal Lys Ne) [RWJ-800088]”, in the experiment on Megakaryocytes (13 days after treatment, 300 μg/kg s.c.), the “Number of megakaryocytes in sternal marrow” value was “dropped down to baseline”. Also, the “Megakaryocytes in sternal marrow relative to naive animals” value in the experiment on Megakaryocytes (days 3 and 6 after 300 μg/kg s.c.) is given as “significant increases”. Besides, in [1] (day 3 after treatment), the “Myeloid progenitor cells (lineage-, c-kit+) in femoral marrow relative to naive” value is “significant increases”. The results for the “Myeloid progenitor cells (lineage-, c-kit+) in femoral marrow” value in experiment [1] (day 6 after treatment) and in experiment [1] (day 13 after treatment) were “significant decrease” and “return to baseline”, respectively. Also, the “LSK (lineage-, c-kit+, Sca-1+) population in femoral marrow” value with LSK is “significantly increased”. The “LSK, CD34+ short-term (ST-) HSC population in femoral marrow” value with Short-term HSCs is given as “significantly increased”. Moreover, in the experiment on Long-term HSCs, the “LSK, CD34-, CD48-, CD150+ long-term (LT-) HSCs in femoral marrow” value is recorded as “significantly increased”. The “EPC population in femoral marrow, time course” value in [2] is on record as “began increasing on day 3 with a peak on day 6”. Further, the “EC (CD31+) population in femoral marrow, time course” value in the experiment on Endothelial cells (EC) was “increased beginning on day 3 and was sustained through day 13”. In addition, the “MPC population in the bone marrow compartment” value in [3] is reported as “increases”. Besides, in experiment [4], the “HSC population in the bone marrow compartment” value is on record as “increases”. In [5], the “EPC populations in the bone marrow” value is “significant increase”.

Values taken from patent US20230104658A1, “METHODS OF INCREASING PROGENITOR CELL PRODUCTION” (Janssen Pharmaceutica NV, priority 2021, published 2023).
